Results reported in BigSolDB 2.1.

O=P1(O)OCC2(CO1)COP(=O)(O)OC2 (stereo not drawn)
Settings	solubility (mole fraction)
in 1,4-dioxane, 293.16 K	0.00025
in 1,4-dioxane, 298.17 K	0.00028
in 1,4-dioxane, 303.16 K	0.00031
in 1,4-dioxane, 308.17 K	0.00035
in 1,4-dioxane, 313.16 K	0.0004
in 1,4-dioxane, 318.18 K	0.00045
in 1,4-dioxane, 323.16 K	0.0005
in 1,4-dioxane, 328.16 K	0.00055
in 1,4-dioxane, 333.17 K	0.0006
in 1,4-dioxane, 338.15 K	0.00066
in 2-butanone, 293.16 K	0.0006
in 2-butanone, 298.17 K	0.0007
in 2-butanone, 303.16 K	0.0008
in 2-butanone, 308.17 K	0.001
in 2-butanone, 313.16 K	0.0011
in 2-butanone, 318.18 K	0.0013
in 2-butanone, 323.16 K	0.0015
in 2-butanone, 328.16 K	0.0016
in 2-butanone, 333.17 K	0.0018
in acetic acid, 293.16 K	0.00017
in acetic acid, 298.17 K	0.00022
in acetic acid, 303.16 K	0.00026
in acetic acid, 308.17 K	0.00032
in acetic acid, 313.16 K	0.0004
in acetic acid, 318.18 K	0.00048
in acetic acid, 323.16 K	0.00057
in acetic acid, 328.16 K	0.00067
in acetic acid, 333.17 K	0.00078
in acetic acid, 338.15 K	0.00092
in acetone, 295.75 K	0.004
in acetone, 297.55 K	0.0041
in acetone, 299.85 K	0.0043
in acetone, 301.45 K	0.0044
in acetone, 303.15 K	0.0045
in acetone, 305.35 K	0.0047
in acetone, 307.95 K	0.0049
in acetone, 309.15 K	0.005
in acetone, 313.35 K	0.0053
in acetone, 317.15 K	0.0057
in acetone, 319.15 K	0.0058
in acetonitrile, 309.35 K	0.0006
in acetonitrile, 311.25 K	0.0007
in acetonitrile, 313.25 K	0.0009
in acetonitrile, 315.45 K	0.001
in acetonitrile, 317.35 K	0.0012
in acetonitrile, 319.55 K	0.0015
in acetonitrile, 321.55 K	0.0017
in acetonitrile, 323.25 K	0.002
in acetonitrile, 325.75 K	0.0025
in acetonitrile, 327.45 K	0.0028
in acetonitrile, 329.45 K	0.0032
in acetonitrile, 331.55 K	0.0038
in benzene, 293.16 K	0.00031
in benzene, 298.17 K	0.00038
in benzene, 303.16 K	0.00047
in benzene, 308.17 K	0.00059
in benzene, 313.16 K	0.0007
in benzene, 318.18 K	0.00088
in benzene, 323.16 K	0.00103
in benzene, 328.16 K	0.00123
in benzene, 333.17 K	0.00146
in benzene, 338.15 K	0.00176
in chloroform, 293.16 K	0.00046
in chloroform, 298.17 K	0.00054
in chloroform, 303.16 K	0.00067
in chloroform, 308.17 K	0.00081
in chloroform, 313.16 K	0.00094
in chloroform, 318.18 K	0.00114
in chloroform, 323.16 K	0.00137
in chloroform, 328.16 K	0.00163
in chloroform, 333.17 K	0.00192
in chloroform, 338.15 K	0.00222
in cyclohexane, 293.16 K	0.00016
in cyclohexane, 298.17 K	0.00019
in cyclohexane, 303.16 K	0.00022
in cyclohexane, 308.17 K	0.00025
in cyclohexane, 313.16 K	0.00028
in cyclohexane, 318.18 K	0.00032
in cyclohexane, 323.16 K	0.00037
in cyclohexane, 328.16 K	0.00041
in cyclohexane, 333.15 K	0.00046
in cyclohexane, 338.15 K	0.00052
in dichloromethane, 291.16 K	0.00027
in dichloromethane, 295.18 K	0.00032
in dichloromethane, 299.16 K	0.00037
in dichloromethane, 303.19 K	0.00045
in dichloromethane, 305.2 K	0.00048
in dichloromethane, 309.15 K	0.00056
in diethyl ether, 291.16 K	0.00053
in diethyl ether, 295.18 K	0.00073
in diethyl ether, 299.16 K	0.00096
in diethyl ether, 303.19 K	0.00124
in diethyl ether, 305.2 K	0.0014
in ethyl acetate, 293.16 K	0.00078
in ethyl acetate, 298.17 K	0.00092
in ethyl acetate, 303.16 K	0.00109
in ethyl acetate, 308.17 K	0.00129
in ethyl acetate, 313.16 K	0.00152
in ethyl acetate, 318.18 K	0.00177
in ethyl acetate, 323.16 K	0.00204
in ethyl acetate, 328.16 K	0.00229
in ethyl acetate, 333.17 K	0.00271
in ethyl acetate, 338.15 K	0.00315
in toluene, 293.16 K	0.00046
in toluene, 298.17 K	0.00059
in toluene, 303.16 K	0.00071
in toluene, 308.17 K	0.00086
in toluene, 313.16 K	0.00104
in toluene, 318.18 K	0.00122
in toluene, 323.16 K	0.00146
in toluene, 328.16 K	0.00176
in toluene, 333.17 K	0.00209
in toluene, 338.15 K	0.00248
